The text below walks through data of PubChem BioAssay AID1159563 (GlaxoSmithKline (GSK), 2015).

Active and inactive are the calls of the source. How the calls were made is not given here.

This test relates to HepG2 cytotoxicity. In words: human hepatoma cell viability loss – cytotoxicity control (AID 1159563).
For orientation: IC50 means the concentration at which inhibition is half-maximal. As to `COc1cccc(-c2cc(C(F)(F)F)nc(-n3ccc([N+](=O)[O-])n3)n2)c1`, the IC50 was > 100 µM (inactive).
On to `O=c1cc(NCCCNCc2c[nH]c3ccc(Br)cc23)[nH]c2ccccc12`, for which the IC50 is > 100 µM (inactive).
Consider `NC(=O)c1cc(NC(=O)c2ccccc2COc2ccccc2)ccc1Cl`, for which the IC50 is > 100 µM (inactive).
As to `Cc1cc(Br)cc(C(=O)c2c(C(C)C)c(=O)[nH]c(=O)n2Cc2ccnc(N)c2)c1`, the IC50 was > 100 µM (inactive).
Then `Nc1nonc1-c1nc2cncc(C(=O)N3CC[C@H](N)C3)c2n1CC1CC1`, with > 100 µM (inactive).
The result for `Cc1nc(C(=O)Nc2ccc3c(c2)OCO3)nn1-c1ccc(Cl)cc1` reads > 100 µM (inactive).
Then `O=C(CC1(O)C(=O)N(Cc2ccccc2)c2ccc(Br)cc21)c1cccnc1` (stereo unspecified), with 63 µM; and `COC(=O)c1ccc(-c2cnc3ccc(NCc4ccccn4)nn23)cc1`, with 100 µM; and `Cc1cc(N(C)C)nc(Nc2ccccc2C)n1`, with 63 µM.
Consider `CC(C)Nc1nccc(-c2c(-c3ccc(F)cc3)ncn2C2CCOCC2)n1`, for which the IC50 was > 100 µM (inactive).
Then `CCS(=O)(=O)c1cccc(C(=O)Nc2nc(-c3ccccn3)cs2)c1`, with 25 µM.
With `COc1ccc(-c2cnc(NC(=O)c3cc(-c4ccccn4)n[nH]3)n2C)cc1`, the IC50 was > 100 µM (inactive).
The result for `CC1CCCN(S(=O)(=O)c2ccc(C(=O)Nc3nc(-c4ccccn4)cs3)cc2)C1` (stereo unspecified) reads 40 µM.
In the case of `CC(C)S(=O)(=O)c1ccc(-c2cnc(N)c3cc(-c4ccnc(N)n4)ccc23)cc1`, the IC50 is 16 µM.
In the case of `COc1ccc2ncc(=O)n(CCN3CC[C@H](NCc4ncc(Cl)c5[nH]ncc45)[C@H](O)C3)c2n1`, the IC50 is > 100 µM (inactive).
As to `CCN(CC)S(=O)(=O)c1ccc(OC)c(NC(=O)c2ccc([N+](=O)[O-])s2)c1`, the IC50 was > 100 µM (inactive).
Then `Cc1c([N+](=O)[O-])c(C(=O)Nc2sc3c(c2C#N)CCC(C)C3)nn1C` (stereo unspecified), with > 100 µM (inactive); and `N#Cc1ccccc1S(=O)(=O)N1CCN(C(=O)CNC(=O)c2ccc3c(c2)OCO3)CC1`, with > 100 µM (inactive); and `CC(Cn1ccnc1)NC(=O)COc1ccc(Cl)c(Cl)c1` (stereo unspecified), with > 100 µM (inactive).
For `COc1cccc(CN(C)Cc2nc(N)c3c(C)c(C)sc3n2)c1`, the IC50 is 40 µM.
The result for `CS(=O)(=O)NC1CCC(Oc2cc3cnccc3cc2-c2ccsc2)CC1` (stereo unspecified) reads 63 µM; that for `CCCC(=O)N(Cc1ccccn1)c1nc2ccccc2s1`, > 100 µM (inactive).
In the case of `Nc1nc(-c2ccccn2)nc(-n2nc(-c3cccc(C(F)(F)F)c3)cc2N)n1`, the IC50 was 20 µM.
As for `COc1ccc(C(=O)[C@H]2C[C@@H]2CN(Cc2ccccn2)Cc2ccccn2)cc1`, the IC50 was > 100 µM (inactive).
Then `O=C(NCCc1csc(-c2cccc(F)c2)n1)c1ccco1`, with > 100 µM (inactive); and `N#Cc1cccc(Nc2nccc(N3CCC(NS(=O)(=O)c4cccc(C#N)c4)CC3)n2)c1`, with 50 µM; and `COc1ccc(-c2ccc3nnc(-c4ccc(O)c(OC)c4)n3c2)cn1`, with > 100 µM (inactive).
Then `Cc1occc1C(=O)Nc1ccccc1C(=O)Nc1nccs1`, with > 100 µM (inactive); and `CN(C)CCN(C)Cc1ccc(Cl)cc1NS(=O)(=O)c1ccc(Cl)c(Cl)c1`, with 32 µM.
The result for `N#Cc1cccc(Cc2cc(Nc3cc(C4CC4)[nH]n3)nc(N3CC[C@H]3C(N)=O)n2)c1` reads > 100 µM (inactive); that for `COc1ccc(CN2CCCCC2c2nc(-c3cccnc3)no2)cc1` (stereo unspecified), > 100 µM (inactive).
For the molecule `O=C(NC1CCN(C2Cc3ccc(NS(=O)(=O)c4cc(F)cc(F)c4)cc3C2)CC1)C1CC1` (stereo unspecified), the IC50 is > 100 µM (inactive).
Consider `CCCCNc1nccc(-c2c(-c3ccc(F)cc3)nn3c(N4CCOCC4)cccc23)n1`, for which the IC50 is > 100 µM (inactive).
Then `Fc1ccc(OC2CC(NCc3cccc4cn[nH]c34)C2)cc1C(F)(F)F` (stereo unspecified), with 25 µM.
Then `CCCn1c(NC(=O)CCn2cc(Br)cn2)nc2ccccc21`, with > 100 µM (inactive); and `Cc1ccc2c(c1)-c1onc(C(=O)N3CCCCC3c3cccnc3)c1CO2` (stereo unspecified), with 50 µM.
`O=C(Nc1cccc(Cl)c1)N1CCCCC1c1cccnc1` (stereo unspecified): the IC50 is > 100 µM (inactive).
Then `CC(C)(C)c1csc(NC(=O)c2ccc([N+](=O)[O-])s2)n1`, with 50 µM; and `O=C(Nc1cccc(S(=O)(=O)Nc2ccc(Br)cc2)c1)c1ccc([N+](=O)[O-])s1`, with 16 µM.
In the case of `Cc1cccc(NS(=O)(=O)c2ccc3c(c2)C(=O)c2cc(S(=O)(=O)Nc4cccc(C)c4C)ccc2-3)c1C`, the IC50 was > 100 µM (inactive).
Then `COc1ccccc1C=CCN1C[C@H]2CCC[C@@H](C1)C2(O)c1cccnc1` (stereo partly specified), with > 100 µM (inactive); and `O=S(=O)(c1cccc(CSc2nnc(-c3ccc4c(c3)OCO4)o2)c1)N1CCOCC1`, with > 100 µM (inactive); and `CCN(C)Cc1ccc(N2CCC(NS(=O)(=O)c3ccc4c(c3)CCO4)CC2)nc1`, with > 100 µM (inactive).
Then `COc1ccccc1-n1c(SCC(=O)Nc2ccc3c(c2)OCO3)nc2c(c1=O)SCC2`, with > 100 µM (inactive).
Turning to `Cc1ccccc1NS(=O)(=O)c1ccc2[nH]cc(C(=O)NC3CCCC(C)C3C)c(=O)c2c1` (stereo unspecified), the IC50 is 40 µM.
Then `Cn1c(CC(=O)NNC(=O)c2ccc3ccccc3n2)nc2ccccc21`, with > 100 µM (inactive); and `CC(C)(C)Nc1nc(Nc2ccc3c(c2)CS(=O)(=O)C3)nc2[nH]ccc12`, with 32 µM; and `COc1ccc(NS(=O)(=O)c2ccc(S(=O)(=O)N(C)C3CCCCC3)cc2)c2ncccc12`, with > 100 µM (inactive).
`O=C(COc1ncnc2cc([N+](=O)[O-])ccc12)NC(=O)NC1CCCCC1`: the IC50 was > 100 µM (inactive).
As for `O=C(CCCNC(=O)c1ccc(Cl)cc1)Nc1nc(-c2ccccn2)cs1`, the IC50 was > 100 µM (inactive).
As to `Cc1nc2nc(C)c(Cc3ccc(C(C)C)cc3)c(=O)n2[nH]1`, the IC50 was > 100 µM (inactive).
For the molecule `CCOc1ccc(CN(C)Cc2nc(N)nc(Nc3ccc(C)cc3)n2)cc1`, the IC50 was 32 µM.
The result for `O=C(c1ccccc1)N1CCC(C(=O)N2CCC(Oc3ccccc3Cl)CC2)CC1` reads > 100 µM (inactive); that for `Cn1cncc1CN1CCC2(CC1)COC(Cc1ccccc1)C2` (stereo unspecified), > 100 µM (inactive); that for `Cc1[nH]nc2c1C(c1ccc(OCc3ccccc3F)cc1)SCC(=O)N2` (stereo unspecified), > 100 µM (inactive).
With `Cc1ncsc1CNc1cnc(-c2ccc3c(c2)OCCO3)c(-c2cnn(C)c2)c1`, the IC50 was > 100 µM (inactive).
Then `O=S(=O)(c1ccccc1C(F)(F)F)N1CCN(Cc2ccc(-n3ccnc3)cc2)CC1`, with > 100 µM (inactive); and `COc1ccc(CN2C(=O)C(O)(CC(=O)c3ccncc3)c3cc(Br)ccc32)cc1OC` (stereo unspecified), with 40 µM.
The result for `CC(=O)Nc1ccc(-c2csc(NC(=O)c3ccc([N+](=O)[O-])s3)n2)cc1` reads 50 µM; that for `Cc1c(C#N)c([N+](=O)[O-])nn1Cc1cccc(Cl)c1Cl`, 79 µM.
For `CN(C)S(=O)(=O)c1cccc(CSc2nnc(-c3ccc4c(c3)OCO4)o2)c1`, the IC50 was > 100 µM (inactive).
